In US9642821B2, “MiR-182 in the diagnosis and treatment of cancer” (Dana-Farber Cancer Institute, Inc., priority 2010, dated 2017):
Entries after “also recorded” stand apart in the source; their conditions may differ.

Legend:
Type in all cases: cell-based
U2OS-DR-GFP cells = test: Homologous recombination (HR) DR-GFP reporter assay; conditions: U2OS DR-GFP stably expressing miR-182, I-SceI
Description: U2OS-DR-GFP cells, with a single, stably integrated copy of the transgenic reporter DR-GFP were seeded (0.35×10^6 cells/well) into the wells of a 6-well tissue culture plate, transfected with a control and an miR-182 expression construct. Cells were selected for 4 weeks with 100 μg/ml of puromycin. mir-182 overexpression was confirmed with qPCR (FIG. 3C). HR assay was done as described (Chowdhury et al., Mol. Cell, 31:33-46 (2008)). Briefly, 2×10^5 cells plated overnight in 24-well plates were transfected with 0.8 μg of I-SceI expression plasmid (pCBA Sce) using Lipofectamine 2000. 2 days later, GFP positive cells were assayed by FACScan flow cytometer.

U2OS cells = test: G2/M checkpoint, phospho-H3 flow cytometry after IR; conditions: 5 Gy IR, nocodazole, P-H3 staining
Description: U2OS cells (0.35×10^6 cells/well) were transfected with 10 nM control mimic or miR-182 mimic and, in rescue experiments, co-transfected with 1 μg of BRCA1 (lacking 3′UTR) expression construct using Lipofectamine 2000. After 2 days, cells were seeded into the wells of 12-well tissue culture plates, incubated overnight, irradiated (5 Gy) and released in nocadozole (200 ng/ml) containing media after 2 hours. The next day the cells were stained with primary Phospho-H3 (Ser10) antibodies 1:100 dilution (Upstate Biotechnology, Lake Placid, N.Y.) and FITC-labeled secondary antibodies 1:50 dilution (Santa Cruz Biotechnology, Santa Cruz, Calif.) and analyzed by flow cytometry.

MDA-MB231 cells = test: Clonogenic cell survival assay after γ-radiation, MDA-MB231; conditions: MDA-MB231, vs control mimic
Description: Hela cells (0.35×10^6 cells/well), MDA-MB231 cells (0.4×10^6 cells/well), 21NT cells (0.5×10^6) were seeded overnight and transfected with 10 nM of miRNA mimics or antagomirs (Ambion, Austin, Tex.) using Lipofectamine 2000. In rescue experiments, miR-182 or control mimics were co-transfected with 1 μg/ml BRCA1 (pcDNA3.1 vector). After 2 days, 1000 cells in 4 ml DMEM media (10% FBS v/v) were seeded on 6 cm tissue culture dishes in four replicates and allowed to attach overnight before treatment. PARP inhibitors (4-amino-1,8-naphthalimide (Sigma, St. Louis, Mo.) or ABT-888 (ChemieTek, Indianapolis, Ind.) in DMSO) were added to the growth media at indicated concentrations. Irradiated cells as well as cells in the presence of PARP inhibitor were allowed to form colonies for 14 days. For evaluation, formed colonies were stained with crystal violet and surviving colonies containing >50 cells were counted. Plating efficiency was 30-50%.

BRCA1 = BRCA1 expression after ectopic miRNA overexpression in HL60 cells (immunoblot, qPCR)
Description: Analysis of the miRNAs of the miR-183 cluster was conducted using qPCR using the TaqMan MicroRNA Assay from Applied Biosystems as per the manufacturer's instructions and normalized to RNU6B snRNA. Analysis of mRNA expression was carried out with qPCR using the SYBR Green master mix (Applied Biosystems, Foster City, Calif.) according to the manufacture's manual and the BioRad iCycler. The mRNA (1 μg) was reverse transcribed with 50 ng random primers using 100 U moloney murine leukemia virus (MMLV) reverse transcriptase (Epicentre, Madison, Wis.) according to the manufacturer's manual. Results were normalized to 5SrRNA or GAPDH.
In each experiment, where Western blot analysis was done, a fraction of 0.2−0.5×10^6 cells was taken out at day, 3 or 4, post-transfection. Breast cancer cell lines were collected from 6 well tissue culture plates (0.5-1×10^6 cells). Cells lysates were prepared in RIPA buffer (150 mM NaCl, 1% NP-40, 0.5% sodium deoxycholate, 0.1% SDS, 50 mM Tris, pH 8.0). Lysates of 0.1×10^6 cells of each sample plus loading buffer were loaded on 8% SDS-PAGE gels, semi-dry transferred on nitrocellulose membrane, and probed with anti-BRCA1 antibody at a 1:500 dilution (CALBIOCHEM, MS110) and anti-tubulin antibody at a 1:10,000 dilution (Sigma, Clone B-5-1-2).

Substance: miR-182: microRNA with sequence 5′ UUUGGCAAUGGUAGAACUCACACU 3′ (SEQ ID NO:1); given as mimic (Ambion) or expression vector (UUUGGCAAUGGUAGAACUCACACU; listed as RNA, chemistry not given here; listed as Homo sapiens)
- HR-mediated DSB repair efficiency (GFP positive cells) (U2OS-DR-GFP cells): significantly reduced HR-efficiency; also recorded: impedes homologous recombination-mediated repair
- mitotic cells post-DNA damage (G2/M checkpoint) (U2OS cells): significant increase in mitotic cells; also recorded: impacts the G2/M checkpoint
- sensitivity to IR (clonogenic survival) (MDA-MB231 cells): significantly more sensitive
- sensitivity to IR (clonogenic survival) (MDA-MB231 cells; listed as miR-182 mimic): significantly enhanced sensitivity to IR
- BRCA1 protein level (BRCA1; HL60 cells transiently transfected with expression vectors, Western blot): significant decrease
- BRCA1 mRNA level (BRCA1; ectopic overexpression, data not shown): moderate decrease
